Measured values reported in patent publication US10646478B2, “Methods for treatment of melanoma” (CHILDREN'S MEDICAL CENTER CORPORATION, priority 2011, dated 2020).

Experiments:
M481 cells = experiment: Cell viability of primary human melanoma cells M481; type: cell-based; conditions: FIG. 28a
Text: (§1) FIG. 28a, M481 cells. FIG. 28b, A375 cells. FIG. 28c, M405 cells. FIG. 28d, M528 cells. FIG. 28e, M715 cells.

[1] = test system: gene expression (123-gene melanoma signature); experiment: Microarray analysis of leflunomide treated zebrafish embryos; type: in vivo
A375 cells = experiment: Cell viability of melanoma cell line A375 (FIG. 28b); type: cell-based, human
Text: as §1

[2] = 100 mg daily for 3 days, then 20 mg per day; cited from earlier work
A375 melanoma cells = experiment: In vivo xenograft study of A375 cells in nude mice; set-up: species or system mouse; conditions: daily i.p.; PLX4720 2.5 mg/kg, Leflunomide 7.5 mg/kg; DMSO 7.4+/−1.3-fold
Protocol: The A375 cell line was chosen for xenografts based on prior experience with PLX4720 in this line. Cells were grown to 60-70% confluence, trypsinized and 3.5×10^5 cells were transplanted into the right flank of nude mice in a volume of 200 ul. […] Tumors were measured with digital calipers on day 4, 7 and 12 and growth rate was compared to the tumor size on day 0. Growth rates were compared between DMSO, PLX, LEF or […] using ANOVA with repeated measures to identify significant interactions. For the day 12 data, differences between the groups were compared using ANOVA followed by posthoc Tukey's least-squared difference.

[3] = test system: M481 primary human melanoma xenografts; experiment: M481 primary human melanoma xenografts in mice; type: in vivo, mouse; conditions: in combination with Plexicon
[4] = test system: crestin+ neural crest progenitors; experiment: In situ hybridization (ISH) for crestin in zebrafish embryos (chemical screen for suppressors of neural crest development); type: in vivo; conditions: for crestin expression by ISH: zebrafish embryos, 50% epiboly to 24 hpf
Protocol: The screen was performed essentially as previously described^31. In brief, WT embryos were collected, staged and then plated at a density of 10 embryos per well in a […] tissue culture plate in 200 ul of E3 water. At 50% epiboly, 100 ul of a 3× chemical stock was added to each well using a Hamilton liquid handling robot, yielding a final 1× concentration. For the majority of the chemicals in the library, this yielded a concentration of ˜33 uM. The libraries used were the BIOMOL 480, Sigma LOPAC 1280, and selected additional compounds obtained through the Children's Hospital Boston Chemical Screening facility. Compounds known to affect pigmentation in Xenopus were obtained from a screen previously described^32, 33. After treatment, embryos were rinsed in E3 water, pronase treated to remove chorions, washed 4× in E3 and 1× in PBT, and then fixed in 4% PFA for 24 hours. Fixed embryos were changed to 100% methanol 24 h later, and kept until the time of ISH.
Embryos underwent automated ISH using a Biolane HTI robot with a crestin riboprobe as previously described^31. All wells were manually scored by eye, assigning a score within a range of 1 (no crestin staining) to 3 (no change in crestin) to 5 (marked increase in crestin). Note was also taken of chemicals that affected migratory patterns in both A-P and D-V directions, and overall morphology. […] All hits were validated in larger, independent clutches of 100-200 embryos using chemicals obtained from independent suppliers.

Cc1oncc1C(=O)Nc1ccc(C(F)(F)F)cc1 [leflunomide]
cell survival of M481 cells (M481 cells): impair cell survival | number of genes upregulated ([1]; 6.5 uM, 50% epiboly to 24 hpf, 2-fold): 60 genes | genes upregulated in the 123-gene melanoma signature that are downregulated ([1]; leflunomide treated embryos): 49% | cell survival of A375 cells (A375 cells): impair cell survival | steady-state concentration [2]: approximately 60 mcg/mL | tumor growth at 12 days post-treatment (A375 melanoma cells): 4.7+/−0.12 fold | tumor volume [3]: more effective when used in combination with Plexicon | ability to inhibit neural crest development (rank order of effect) ([4]; Example III, different concentrations, crestin ISH): approximately the same as compounds 5 and 6 | crestin expression by ISH [4]: reduction in expression of the neural crest | crestin expression by ISH ([4]; listed as Leflunomide): phenocopied NSC210627
